According to ChEMBL document CHEMBL1201862, “PubChem BioAssay data set” (2004):
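Briefly, cells in 96-well plates were exposed to five compound concentrations for 48 h, and endpoints were estimated by linear interpolation. At the GI50, growth is halved.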 Activity calls are given as the source filed them. No stated cut-off is given here; in the data, active = GI50 up to about 1.1 µM and inactive = higher.

Key:
Assay in all cases: NCI tumour cell line growth inhibition, 48 h
TK-10 = tested on: TK-10
DU-145 = tested on: DU-145
UO-31 = tested on: UO-31
SF-268 = tested on: SF-268
HL-60 = tested on: HL-60
SK-MEL-2 = tested on: SK-MEL-2
NCI-H460 = tested on: NCI-H460
SK-MEL-28 = tested on: SK-MEL-28
CAKI-1 = tested on: CAKI-1
Malme-3M = tested on: Malme-3M
OVCAR-4 = tested on: OVCAR-4
BT-549 = tested on: BT-549
MCF7 = tested on: MCF7
U-251 = tested on: U-251
HCT-15 = tested on: HCT-15
SN12C = tested on: SN12C
SF-539 = tested on: SF-539
HOP-62 = tested on: HOP-62

Compound | GI50 (TK-10) | GI50 (DU-145) | GI50 (UO-31) | GI50 (SF-268) | GI50 (HL-60) | GI50 (SK-MEL-2) | GI50 (NCI-H460) | GI50 (SK-MEL-28) | GI50 (CAKI-1) | GI50 (Malme-3M) | GI50 (OVCAR-4) | GI50 (BT-549) | GI50 (MCF7) | GI50 (U-251) | GI50 (HCT-15) | GI50 (SN12C) | GI50 (SF-539) | GI50 (HOP-62)
COc1ccc2cc(C(=O)CCC(=O)O)ccc2c1 | > 100 µM (inactive) | > 100 µM (inactive) | > 100 µM (inactive) | > 100 µM (inactive) | > 100 µM (inactive) | > 100 µM (inactive) | > 100 µM (inactive) | > 100 µM (inactive) | > 100 µM (inactive) | > 100 µM (inactive) | > 100 µM (inactive) | > 100 µM (inactive) | > 100 µM (inactive) | > 100 µM (inactive) | > 100 µM | > 100 µM (inactive) | > 100 µM (inactive) | > 100 µM (inactive)
O=C(O)/C(Cc1c[nH]nn1)=N\O | > 100 µM (inactive) | > 100 µM (inactive) | > 100 µM (inactive) | > 100 µM (inactive) | > 100 µM (inactive) | > 100 µM (inactive) | > 100 µM (inactive) | > 100 µM (inactive) | > 100 µM (inactive) | > 100 µM (inactive) | > 100 µM (inactive) | > 100 µM (inactive) | > 100 µM (inactive) | > 100 µM (inactive) | > 100 µM | > 100 µM (inactive) | > 100 µM (inactive) | > 100 µM (inactive)
c1ccc(COc2ccc(C[P+](c3ccccc3)(c3ccccc3)c3ccccc3)cc2)cc1 | 0.251 µM (active) | 0.304 µM (active) | 2.94 µM (inactive) | 0.261 µM (active) | 0.0682 µM (active) | 0.109 µM (active) | 0.225 µM (active) | 0.337 µM (active) | 6.79 µM (inactive) | 0.361 µM (active) | 0.245 µM (active) | 0.139 µM (active) | 0.1 µM (active) | 0.102 µM (active) | 2.82 µM | 0.305 µM (active) | 0.284 µM (active) | 0.427 µM (active)
CC(=O)OC/C=C/Cn1nc(Br)c(=O)[nH]c1=O | > 100 µM (inactive) | > 100 µM (inactive) | > 100 µM (inactive) | > 100 µM (inactive) | > 100 µM (inactive) | > 100 µM (inactive) | > 100 µM (inactive) | > 100 µM (inactive) | > 100 µM (inactive) | > 100 µM (inactive) | > 100 µM (inactive) | > 100 µM (inactive) | > 100 µM (inactive) | > 100 µM (inactive) | > 100 µM | > 100 µM (inactive) | > 100 µM (inactive) | > 100 µM (inactive)
CC(C(=O)OCc1ccccc1)(c1ccco1)N1C(=O)OC(c2ccccc2)C1c1ccccc1 (configuration not stated) | > 100 µM (inactive) | > 100 µM (inactive) | 6.34 µM (inactive) | > 100 µM (inactive) | 3.81 µM (inactive) | > 100 µM (inactive) | 26.1 µM (inactive) | > 100 µM (inactive) | > 100 µM (inactive) | > 100 µM (inactive) | > 100 µM (inactive) | > 100 µM (inactive) | > 100 µM (inactive) | > 100 µM (inactive) | > 100 µM | > 100 µM (inactive) | > 100 µM (inactive) | > 100 µM (inactive)
CC(=O)Nc1ccc(S(=O)(=O)/N=C2\C=CC(=O)c3ccccc32)cc1 | 19.9 µM (inactive) | 7.4 µM (inactive) | 7.48 µM (inactive) | 8.02 µM (inactive) | 0.481 µM (active) | 14.3 µM (inactive) | 12.1 µM (inactive) | 10.5 µM (inactive) | 17.3 µM (inactive) | 3.65 µM (inactive) | 1.87 µM (inactive) | 12.1 µM (inactive) | 5.01 µM (inactive) | 5.81 µM (inactive) | 7.62 µM | 4.92 µM (inactive) | 7.66 µM (inactive) | 8.83 µM (inactive)
CCOC(=O)c1cc(-c2ccc(OC)cc2)c([N+](=O)[O-])[nH]1 | > 10 µM (inactive) | > 10 µM (inactive) | > 10 µM (inactive) | > 10 µM (inactive) | > 10 µM (inactive) | > 10 µM (inactive) | > 10 µM (inactive) | > 10 µM (inactive) | > 10 µM (inactive) | > 10 µM (inactive) | > 10 µM (inactive) | > 10 µM (inactive) | > 10 µM (inactive) | > 10 µM (inactive) | > 10 µM | > 10 µM (inactive) | > 10 µM (inactive) | > 10 µM (inactive)
CC(C)=CCC\C(C)=C/C=C/C(C)=C\C=C\C(C)=C/C=C/C=C(C)\C=C\C=C(C)/C=C/C=C(/C)CCC=C(C)C | > 100 µM (inactive) | > 100 µM (inactive) | > 100 µM (inactive) | > 100 µM (inactive) | > 100 µM (inactive) | > 100 µM (inactive) | – | > 100 µM (inactive) | > 100 µM (inactive) | > 100 µM (inactive) | > 100 µM (inactive) | > 100 µM (inactive) | > 100 µM (inactive) | – | > 100 µM | > 100 µM (inactive) | > 100 µM (inactive) | > 100 µM (inactive)
Cc1ccc(S(=O)(=O)N(CC(O)COc2ccccc2)c2c(F)c(F)cc(F)c2F)cc1 (configuration not stated) | 32.9 µM (inactive) | 40.8 µM (inactive) | 20.4 µM (inactive) | 18.7 µM (inactive) | 4.21 µM (inactive) | 17.2 µM (inactive) | 16.7 µM (inactive) | 19.5 µM (inactive) | 15.3 µM (inactive) | 23.1 µM (inactive) | 18.7 µM (inactive) | 24.5 µM (inactive) | 16.4 µM (inactive) | 21 µM (inactive) | 20.9 µM | 22.5 µM (inactive) | 20 µM (inactive) | 21.3 µM (inactive)
CCOC(=O)c1sc2nc(SC)nc(Nc3ccc(OC)c(OC)c3)c2c1N | 6.73 µM (inactive) | 20.2 µM (inactive) | 22.4 µM (inactive) | 14.3 µM (inactive) | > 100 µM (inactive) | 19.7 µM (inactive) | < 0.01 µM (active) | 14.7 µM (inactive) | 89.9 µM (inactive) | 23.2 µM (inactive) | 6.65 µM (inactive) | 17.7 µM (inactive) | 3.95 µM (inactive) | 3.03 µM (inactive) | > 100 µM | 60.3 µM (inactive) | 1.58 µM (inactive) | 6.04 µM (inactive)
C=C1C[C@]23CC[C@@H]4C(CO)(CO)CC(=O)C[C@]4(C)[C@@H]2C(O)C[C@H]1C3 (some centres not stated) | > 100 µM (inactive) | > 100 µM (inactive) | > 100 µM (inactive) | > 100 µM (inactive) | > 100 µM (inactive) | > 100 µM (inactive) | > 100 µM (inactive) | > 100 µM (inactive) | > 100 µM (inactive) | > 100 µM (inactive) | > 100 µM (inactive) | > 100 µM (inactive) | > 100 µM (inactive) | > 100 µM (inactive) | > 100 µM | > 100 µM (inactive) | > 100 µM (inactive) | > 100 µM (inactive)
CCOC(=O)C1(C(N)=O)C(=O)c2ccncc2C1=O (configuration not stated) | – | > 100 µM (inactive) | > 100 µM (inactive) | > 100 µM (inactive) | > 100 µM (inactive) | > 100 µM (inactive) | > 100 µM (inactive) | > 100 µM (inactive) | > 100 µM (inactive) | > 100 µM (inactive) | > 100 µM (inactive) | > 100 µM (inactive) | > 100 µM (inactive) | > 100 µM (inactive) | > 100 µM | > 100 µM (inactive) | > 100 µM (inactive) | –
Cc1c(CCCl)c(N=[N+]=[N-])n2c(nc3ccccc32)c1C#N | 1.52 µM (inactive) | 2.24 µM (inactive) | 1.65 µM (inactive) | 2.22 µM (inactive) | 0.348 µM (active) | 1.48 µM (inactive) | 1.39 µM (inactive) | 1.58 µM (inactive) | 1.39 µM (inactive) | 1.45 µM (inactive) | 1.53 µM (inactive) | 0.867 µM (active) | 0.47 µM (active) | 2.17 µM (inactive) | 1.3 µM | 1.71 µM (inactive) | 1.82 µM (inactive) | 2.13 µM (inactive)
O=S(=O)(O)c1cc(S(=O)(=O)O)c2c(Nc3ccnc4ccccc34)ccc(S(=O)(=O)O)c2c1 | > 100 µM (inactive) | > 100 µM (inactive) | > 100 µM (inactive) | > 100 µM (inactive) | > 100 µM (inactive) | > 100 µM (inactive) | > 100 µM (inactive) | > 100 µM (inactive) | > 100 µM (inactive) | > 100 µM (inactive) | > 100 µM (inactive) | > 100 µM (inactive) | > 100 µM (inactive) | > 100 µM (inactive) | > 100 µM | > 100 µM (inactive) | > 100 µM (inactive) | > 100 µM (inactive)
O=C(Oc1cccc(Cl)c1)c1cc2cc(CCl)ccc2oc1=O | 32.1 µM (inactive) | 22.8 µM (inactive) | 32.8 µM (inactive) | 80 µM (inactive) | 19 µM (inactive) | 12.6 µM (inactive) | 37.8 µM (inactive) | 40 µM (inactive) | 60.7 µM (inactive) | 14 µM (inactive) | 41.5 µM (inactive) | > 100 µM (inactive) | 30.3 µM (inactive) | – | 88.3 µM | 48.9 µM (inactive) | 49.1 µM (inactive) | 42.9 µM (inactive)
N#Cc1ccc(/C=[N+](/C=c2ccc(=C=[N-])cc2)N(CCO)C2=NCCN2)cc1 | > 100 µM (inactive) | > 100 µM (inactive) | > 100 µM (inactive) | > 100 µM (inactive) | > 100 µM (inactive) | > 100 µM (inactive) | > 100 µM (inactive) | – | > 100 µM (inactive) | > 100 µM (inactive) | > 100 µM (inactive) | > 100 µM (inactive) | > 100 µM (inactive) | > 100 µM (inactive) | > 100 µM | > 100 µM (inactive) | > 100 µM (inactive) | > 100 µM (inactive)
